For data set [1], the system named is SOD1 G93A transgenic mouse. Nature of the data set: Efficacy in the SOD1 G93A transgenic mouse model of ALS. The data set is classed as in vivo. The following applies: 25 mg/kg I.P. daily from day 96. How it is done: Briefly, Congenic SOD1-G93A mice were doced with up to 50 mg/kg of both compounds (IP) to evaluate any toxicity issues prior to initiating the efficacy study. Also, mice administered 20 mg of each compound had high plasma and brain levels at 30 minutes. Next, individually genotyped SOD1-G93A mice (Prize4life-Jackson Labs) were treated with each compound (25 mg/kg, IP) at disease onset (day 96). The treatment extended survival, reduced weight loss and improved the neurologic symptoms. […] The average weight within the groups before the treatment was similar.
While compounds which increase SOD2 expression and activity have potential utility in a number of neurodegenerative diseases involving ROS overproduction, it was decided to test these two compounds in a mouse model of ALS for a variety of reasons, including the evidence for oxidative stress in ALS (described above), the ability of these compounds to induce SOD2 in a motor neuron-like mouse cell line (NSC-34; FIG. 3B), and the availability of a mouse model with dysfunction in SOD1 (human SOD1 G93A transgenic mouse; Jackson Laboratory). The pilot experiment involved treating six wildtype and six SOD1 G93A transgenic males on the C57BL/6 background with 25 mg/kg compound no. 1 and compound no. 2 I.P. daily, beginning around disease onset (day 96; FIG. 4A and FIG. 4B). Mouse survival and behavioral phenotype were observed based on guidelines from “Working with ALS mice: JAX handbook,” using a 4-point severity score (FIG. 4C).
Referring to FIG. 4A and FIG. 4B, SOD1 G93A mice received daily IP injections of saline (control) or compounds (25 mg/kg) starting on day 96.
Referring. To FIG. 4C, progression from neurological score 1 was delayed only by compound no. 2 (2 day delay, +30%), progression to higher (worse) scores was delayed by both compounds. *P<0.05; **P<0.01, 2-way ANOVA.

In a further data set the test system is NF-κB. Nature of the data set: High throughput assay for NF-κB reporter activity (luciferase) in stably transfected SH-SY5Y cells. The data set is classed as cell-based, human. The following applies: Homo sapiens. The protocol:
SH-SY5Y human neuroblastoma cell line was obtained from the American Tissue Culture collection (ATCC). A commercially available expression vector containing the NF-kB promoter enhancer region driving the firefly luciferase gene expression and a second plasmid containing the gene conferring resistance to blasticidin were used in a dual transfection approach to obtain a stable cell line. […] Luciferase activity was measured as a reporter of NF-kB activation using the Bright-Glo Luciferase assay kit (Cat. No. E2620, Promega, Madison, Wis.) according to the manufacturer's instructions. Cell viability was measured using the CellTiter-Glo Luminescent Cell Viability assay kit (Cat. No. G7572, Promega, Madison, Wis.) according to the manufacturer's instructions. Briefly, cells were equilibrated at room temperature for 30 min prior to the addition of Bright-Glo to the white opaque plates or CellTiter-Glo to the black clear bottom plates. A volume of assay buffer equal to the volume of cell media was added to each well and incubated for five min to allow complete cell lysis. All procedures were performed in the dark.

A short description of a further data set: In vivo PK (I.V./P.O.). Further details: species or system mice. The following applies: for half-life: male, CD1, mouse, plasma. How it is done: Before the studies above were initiated, congenic SOD1 G93A mice were dosed with 50 mg/kg of compound no. 1 and compound no. 2 via I.P. injection to rule out any toxicity issues prior to initiating the efficacy study (FIG. 4A-C).
The experiments will involve the administration of compounds to 5-6 week old CD1 male mice. Mice are dosed by either a 1 mg/kg IV bolus or 5 mg/kg oral gavage. Blood samples are collected by cardiac puncture at 0, 0.25, 0.5, 1, 2, 4, 6, 8, 12, and 24 hrs. There will be three mice per time point. Plasma concentration over time will be determined by LC/MS from which the standard PK parameters of clearance, volume of distribution, t1/2 and % F can be derived using WinNoLin software (Pharsight Inc.). This will require a total of 60 mice per compound. Plasma will be analyzed by reverse phase chromatography with MS/MS detection operating in the positive ion mode using multiple reaction monitoring using an internal standard and Applied Biosystems Analyst 1.4 software. Peak time (when maximum plasma drug concentration occurs), peak drug level [approximate maximum concentrations of drug in plasma (Cmax)] and t1/2 for drug elimination will be estimated for each tested compound. Bioavailability (F) will be calculated from the ratio of AUCPO/AUCIV and expressed as a percentage. To determine levels in brain, six additional mice will be dosed with 1 mg/kg I.V. and sacrificed at 0.25 and 1 hr. Brain and spinal cord samples will be collected at these two time points, quick frozen in an ice box and kept at −75±15° C. All samples will be weighed and homogenized with phosphate buffered saline (PBS) by brain weight (g) to PBS volume (mL) ratio 1:3 before analysis. The actual concentration is the detected value multiplied by the dilution factor.

The subject of data set [2] is SOD2. Nature of the data set: Quantitative RT-PCR for SOD2 mRNA in SH-SY5Y neuroblastoma cells. The following applies: 1 μM, 6 h. Type of data set: cell-based, human. The protocol: Referring to FIG. 1A and FIG. 1B, SH-SY5Y neuroblastoma cells were treated with vehicle or compounds (1 μM) for 6 or 24 hours, and cells were collected for RNA isolation (Trizol method). Quantitative RT-PCR for Manganese superoxide dismutase (SOD2; FIG. 1A) or brain-derived neurotrophic factor (BDNF, exon 1; FIG. 1B) indicates short-term upregulation of SOD2 and BDNF and sustained upregulation of BDNF (n=3-4/group, one-way ANOVA followed by unpaired t-test; […]).
Referring to FIG. 6, treatment of SH-SY5Y neuroblastoma cells with compounds (1 μM, 6 h) induced SOD2 mRNA expression >2 fold, as detected by q-RT-PCR. N=4/group, mean+/−SEM, 2-way ANOVA, post-hoc t-test. *p<0.05).

Data set [3] relates to SOD2. Nature of the data set: Quantitative RT-PCR for SOD2 mRNA in NSC-34 neuroblastoma cells. The data set is classed as cell-based, mouse. The following applies: NSC-34, 1 μM, 24 h.
The test system of data set [4] is SOD2. Nature of the data set: SOD2 protein expression and SOD activity in primary rat cortical cultures. The data set is classed as cell-based. The source says: N=3-6/group, mean+/−SEM, *p<0.05, **p<0.01, 2-way ANOVA, post-hoc t-test.
Data set [5] in a line: Plasma and brain levels after I.P. dosing of SOD1 G93A mice. The following applies: 50 mg/kg I.P., within 30 minutes. The data set is classed as in vivo.
A short description of the next data set: Solubility. Type of data set: physicochemical. The following applies: buffer, pH 7.4, aqueous buffer, kinetic from dmso stock. The source says:
A standard panel of in vitro ADME assays will be utilized to assess drug-like properties of compounds and to inform subsequent in vivo PK studies. These assays include: (a) Permeability: MDCK (Madin Darby Canine Kidney) cells transfected with the MDR1 gene encoding for the multi-drug resistant transporter (Pgp) will be utilized to determine a compound's ability to permeate the membrane in apical to basolateral (A-B) and basolateral to apical (B-A) directions. The derived apparent permeability coefficient (Papp) provides an estimate of passive permeability; a ratio of Papp in the B-A/A-B direction gives an estimate of transporter efflux; (b) Solubility: Kinetic solubility is an important parameter for accurate determinations of the dose response. This is estimated using the shake flask method with a μSol Explorer (PION, Billerica, Mass.) at pH 7.4. Compounds are added as a DMSO solution to buffer. The average of two determinations at pH 7.4 will be reported. Solubility at pH 7.4 is relevant for in vitro assays; (c) Metabolic Stability: The potential for a high metabolic clearance compound is estimated using a liver microsome assay. […] The disappearance of the parent molecule is measured by liquid chromatography/mass spectroscopy (LC/MS) detection. […]

Data on two compounds can be found in US11472781B2, “2-aminoaryl-5-aryloxazole analogs for the treatment of neurodegenerative diseases” (Southern Research Institute, priority 2018, dated 2022).

Molecules are shown by their SMILES. Values after ≈ are worked out from the molar mass of the structure shown. Read-outs that look alike come from different tables or passages of the source.

As usually defined, the EC50 is the concentration needed to bring the measured effect to its halfway point. Regarding `Cc1cccnc1Nc1nc(-c2ccccn2)cs1` [Compound 2], in data set [1], the “progression to higher (worse) neurological scores / score of 4” value was “delayed” and the survival entry is given as “significantly prolonged”. In addition, in the data set with NF-κB (24 h, read-out: Emax), the maximal fold induction was determined as 40. The EC50 with NF-κB (24 hr, read-out: EC50) turned out to be 0.21 µM. Moreover, the oral bioavailability result in the data set “In vivo PK (I.V./P.O.)” (I.V./P.O., 1 and 5 mg/kg, respectively) is “lack of oral bioavailability”. Moreover, the half-life in the data set “In vivo PK (I.V./P.O.)” (I.V./P.O., 1 and 5 mg/kg, respectively, read-out: plasma half-life (t1/2)) was under 0.0833 h. Further, the “SOD2 mRNA expression” value with SOD2 [2] (q-RT-PCR) is reported as about 2 fold. Further, in the data set on SOD2 [2] (SH-SY5Y), the “SOD2 mRNA expression” value is reported as “induce SOD2”. Moreover, the “SOD2 mRNA expression” value with SOD2 [3] was “induce SOD2”. In the data set with SOD2 [4], the SOD2 protein expression result is “induce SOD2” and the SOD activity result is recorded as “increase”. The “plasma and brain levels” value in data set [5] is “substantial plasma and brain levels”.

Broadly, the solubility is how much of the substance goes into solution per volume. On to `O=C(O)c1cccc(-c2cnc(Nc3ccccc3F)o2)c1` [Compound 40, 3-(2-((2-Fluorophenyl)amino)oxazol-5-yl)benzoic Acid], for which the half-life in “In vivo PK (I.V./P.O.)” (iv, 1 mg/kg, I.V., read-out: I.V. t1/2 (converted)) was 1.4 h. In addition, the orally bioavailable in “In vivo PK (I.V./P.O.)” (oral) is 16%. The same compound showed a solubility in the data set “Solubility” of 56 µM (≈ 16.7 µg/mL).
